Here are results for one compound from patent publication US20150118215A1, “Methods of Inhibiting Cell Proliferation” (The General Hospital Corporation, priority 2012, published 2015).

The term IC50 denotes the concentration that inhibits the measured activity by half.

In one assay the target is T1, cytohesin-2 (Homo sapiens, UniProt Q99418).
T1 construct: steady-state enzymatic GEF-activity analysis of full-length cytohesin-2 or Sec7 domain with Arf1 and Arf6; made in house; host or cells: E. coli BL21DE3
T1 sequence (Q99418 1-400): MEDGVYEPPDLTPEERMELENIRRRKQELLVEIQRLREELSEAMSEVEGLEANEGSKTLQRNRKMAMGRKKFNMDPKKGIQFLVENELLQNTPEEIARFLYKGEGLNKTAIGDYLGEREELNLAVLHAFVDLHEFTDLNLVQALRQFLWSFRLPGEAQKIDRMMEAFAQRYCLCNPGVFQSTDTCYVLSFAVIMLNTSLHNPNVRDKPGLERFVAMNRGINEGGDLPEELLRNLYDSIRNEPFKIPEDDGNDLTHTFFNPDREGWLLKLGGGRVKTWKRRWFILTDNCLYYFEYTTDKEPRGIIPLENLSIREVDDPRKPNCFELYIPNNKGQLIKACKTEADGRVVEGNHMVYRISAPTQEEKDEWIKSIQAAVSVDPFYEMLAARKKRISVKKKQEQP
The assay can be described thus: Radiolabel-based GEF-activity assay ([35S]-GTPγS binding) of full-length cytohesin-2 with myr-Arf1 or myr-Arf6. It counts as biochemical. Here is the method:
Two assays were used to determine the GDP/GTP-exchange activity of both full-length cytohesin-2 and Sec7 domain.
a) Radiolabel-Based Assay.
The lipids were dissolved in chloroform. […] Proteins were trapped on nitrocellulose filters.
To test the potential signaling between V-ATPase and cytohesin-2/Arf GTP-binding proteins, a GEF-activity assay was established for cytohesin-2 (wt) and myristoylated myr-Arf6 (wt) and myr-Arf1 (wt) GTP-binding proteins (FIG. 2A). Human Arf1 was co-expressed with yeast N-myristoyltransferase in E. coli BL21/DE3 strain. Recombinant myr-Arf1 was purified from the E. coli lysate (A1) using an AKTApurifier equipped with HiTrapQ, Superdex200 columns (A2), and Phenyl Sepharose HP column (A3). Human Arf6 was also co-expressed with yeast N-myristoyltransferase in E. coli BL21/DE3 strain. Recombinant myr-Arf6 was extracted from insoluble fraction using Triton X-100 (B1). The extract was precipitated by 35% ammonium sulfate and myr-Arf6 purified with HiTrapQ column (B2). […] Several soluble, cell permeable and fluorescently labeled a2N1-17 derived peptides were synthesized, which were used in the current GEF-activity and structural studies in vitro.
Background: GTPγS resists hydrolysis and so accumulates on activated G proteins.

Assay [1] concerns the target T2, Sec7 domain of cytohesin-2 (Homo sapiens, UniProt Q99418).
T2 construct: The Sec7 domain of human cytohesin-2 (61-252aa) was expressed in BL21/DE3 cells; GST (N, cleaved yes); made in house; host or cells: E. coli BL21/DE3
T2 sequence (Q99418 61-252): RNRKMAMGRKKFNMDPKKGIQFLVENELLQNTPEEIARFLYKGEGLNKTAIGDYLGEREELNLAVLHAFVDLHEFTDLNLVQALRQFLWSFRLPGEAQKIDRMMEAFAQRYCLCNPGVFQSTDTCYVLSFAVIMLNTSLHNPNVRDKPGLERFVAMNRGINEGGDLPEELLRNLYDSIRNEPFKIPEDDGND
As to the kind of experiment: Tryptophan fluorescence-based GTPγS binding (GEF-activity) assay of Sec7 domain. It counts as biochemical. As to conditions: purified Sec7 domain; truncated [Δ17]Arf1 as substrate; read-out: IC50, inhibition of enzymatic GEF-activity of Sec7 with [Δ17]Arf1.
Source text: b) Tryptophan Fluorescence-Based GTPγS Binding Assay.
In this assay, exchange is followed in real time. […] These are soluble in both GDP and GTP bound forms (myr Arf-GTP requires a hydrophobic surface for stability) allowing exchange to occur in the absence of lipid or detergent, which is desirable because lipid or detergent can scatter light and possibly confound interpretation of changes in fluorescence. To monitor tryptophan fluorescence, the fluorescent spectra of [Δ17]Arf1 in GDP-bound and GTPγS-bound forms were obtained at an excitation wavelength of 285 nm using a PTI spectrofluorimeter. […] Measurements were performed at 37° C. in 50 mM HEPES-KOH, 100 mM KCl, 1 mM MgCl2, 1 mM DTT, 10 μM GTPγS, 1 μM [Δ17]Arf1 or [Δ13]Arf6 and 10 nM Sec7-domain. […] Data were fitted by single exponential curve and analyzed using Microsoft Excel.
This assay allows real-time measurements of the GEF Sec7 domain-induced nucleotide exchange. [Δ17]Arf1 and [Δ13]Arf6, which are soluble in the GTP-bound form, were used as substrates, thereby eliminating the need for phospholipid or detergent in the assay. […] Activation of [Δ17]Arf1 or [Δ13]Arf6 from the GDP-bound form to the GTPγS-bound form was monitored by tryptophan fluorescence (emission/excitation wavelengths of 285/335 nm) (FIG. 3A).

In a further assay the test system is Human NSCLC A549 cells. The assay can be described thus: Cell proliferation assays (MTT, direct cell counting). As to conditions: A549, wild-type EGFR, KRas-G12S; three days treatment. It counts as cell-based. The protocol:
Cell Proliferation Assays—
First, MTT proliferation assay was carried out using cell growth determination kit according to manufacturer instructions (Sigma). Human NSCLC A549 cells which are expressing wild-type EGFR with KRas-G12S activation mutation were studied in these experiments. […] Medium was changed daily for three days, and cells were stained with MTT and DAPI when indicated.
Second, direct cells counting assays were also performed as follows. Microscopic images of 0.317 mm^2 area each well were acquired for MTT stained cells and cells were counted using ImageJ (NIH). […] Alternatively, the cells were stained with DAPI and microscopic images of whole wells were acquired using DeltaVision system (Applied Precision). Cells were counted using Particle Tracker PlugIn for ImageJ as above (FIG. 13).

Assay [2] relates to gefitinib-resistant NSCLC A549 cells. As to conditions: Bill et al. 2012; cited from earlier work.
Assay [3] has as its system gefitinib-resistant NSCLC H460 cells. As to conditions: Bill et al. 2012; cited from earlier work.
A further assay concerns H460 xenografts. As to conditions: Bill et al.; cited from earlier work.
The test system of another assay is PC-9 xenografts. As to conditions: Bill et al.; cited from earlier work.
The next assay deals with EGFR/ErbB-signaling. As to conditions: SecinH3 or cytohesin-2 knock-down; Bill et al.; cited from earlier work.
A further assay concerns lung cancer cells. As to conditions: SecinH3 or cytohesin-2 knock-down; Bill et al.; cited from earlier work.
For the next assay, the system named is tumor xenografts. As to conditions: SecinH3 or cytohesin-2 knock-down; Bill et al.; cited from earlier work.

Read-outs that look alike come from different tables or passages of the source.

Consider `COc1nc(-c2ccc3c(c2)OCO3)n(-c2ccc(NC(=O)CSc3ccccc3)cc2)n1` [SecinH3], for which the IC50 at cytohesin-2 (myr-Arf1 as substrate, azolectin, read-out: IC50, inhibition of enzymatic GEF-activity of cytohesin-2 with myr-Arf1) was above 150 µM; at cytohesin-2 (myr-Arf6 as substrate, PIP2-containing liposomes, read-out: IC50, inhibition of enzymatic GEF-activity of cytohesin-2 with myr-Arf6), above 150 µM; in [1] it was 6.9 µM. In the assay on Human NSCLC A549 cells, the “inhibition of proliferation of human lung cancer A549 cells” value is recorded as “anti-proliferative action”. Besides, the “proliferation of gefitinib-resistant NSCLC A549 cells” value in assay [2] is “efficiently reduced”. Moreover, in assay [3], the “proliferation of gefitinib-resistant NSCLC H460 cells” value was “efficiently reduced”. In addition, the “action in vivo in mice bearing H460 xenografts” value with H460 xenografts is “anti-proliferative and pro-apoptotic action”. Moreover, in the assay on PC-9 xenografts, the “action in vivo in mice bearing PC-9 xenografts” value is “anti-proliferative and pro-apoptotic action”. For the same compound, the EGFR/ErbB-signaling entry in the assay on EGFR/ErbB-signaling is “reduction”. Also, the “cancer cell proliferation in vitro” value in the assay with lung cancer cells is recorded as “suppression”. Besides, in the assay on tumor xenografts, the “growth of tumor xenografts in nude mice model in vivo” value is recorded as “reduction of growth”.
